According to ChEMBL document CHEMBL5329201, “Development of 3-acetylindole derivatives that selectively target BRPF1 as new inhibitors of receptor activator of NF-κB ligand (RANKL)-Induced osteoclastogenesis” (Bioorg Med Chem, 2023):
Calls of active or inactive are those of the source. No cut-off for these calls is given here.

What was measured:
[1] = organism: Homo sapiens; assay: Inhibition of His-tagged human recombinant BRPF1B bromodomain using biotinylated H4 (1 to 21)K5/8/12/16Ac peptide as substrate at 20 uM incubated for 0.5 hrs by AlphaScreen assay relative to control
[2] = Cytotoxicity against C57BL/6 mouse BMMC cells assessed as cell viability at 10 uM measured after 48 hrs by CCK-8 assay (reference value: 100%); format: toxicity, cell-based; details: read-out: Activity
[3] = Inhibition of His-tagged human recombinant BRPF1B bromodomain using biotinylated H4 (1 to 21)K5/8/12/16Ac peptide as substrate incubated for 0.5 hrs by AlphaScreen assay
[4] = Anti-osteoclastogensis activity in C57BL/6 mouse BMMC cells assessed as inhibition of RANKL/M-CSF-induced TRAP activity at 1 uM measured after 3 days by colorimetric assay (reference value: 0%); format: functional; details: C57BL/6, BMMC, 72 h, time 3 day
[5] = organism: Homo sapiens; assay: Inhibition of His-tagged human recombinant BRPF1B bromodomain using biotinylated H4 (1 to 21)K5/8/12/16Ac peptide as substrate at 2 uM incubated for 0.5 hrs by AlphaScreen assay relative to control
[6] = organism: Homo sapiens; assay: Binding affinity to BRPF1B (unknown origin) assessed as change in melting temperature at 10 uM by Differential scanning fluorimetry
[7] = tested on: BMMC; assay: Anti-osteoclastogenesis activity in C57BL/6 mouse BMMC cells assessed as reduction of RANKL/M-CSF-induced osteoclast activation and differentiation measured after 5 days by TRAP staining based light microscopic analysis; format: functional, cell-based; details: for Activity: time 5.0 day
[8] = tested on: BMMC; assay: Anti-osteoclastogenesis activity in C57BL/6 mouse BMMC cells assessed as reduction of RANKL/M-CSF-induced CTSK mRNA expression at 1 uM measured after 3 days by qRT-PCR analysis; format: functional, cell-based; details: time 3.0 day
[9] = tested on: BMMC; assay: Anti-osteoclastogenesis activity in C57BL/6 mouse BMMC cells assessed as reduction of RANKL/M-CSF-induced c-fos mRNA expression measured after 3 days by qRT-PCR analysis; format: functional, cell-based; details: dose 2.5-10 µM, time 3.0 day
[10] = tested on: BMMC; assay: Anti-osteoclastogenesis activity in C57BL/6 mouse BMMC cells assessed as reduction of RANKL/M-CSF-induced osteoclast activation and differentiation by measuring decrease in F-actin ring formation measured after 5 days by F-actin staining based microscopic analysis; format: functional, cell-based; details: time 5.0 day
[11] = tested on: BMMC; assay: Anti-osteoclastogenesis activity in C57BL/6 mouse BMMC cells assessed as reduction of RANKL/M-CSF-induced bone resorption of osteoclasts by measuring decrease in bone resorption pit formation treated for 7 days after seeding cells onto bone slices by toluidine blue staining based confocal laser microscopic analysis; format: functional, cell-based; details: dose 0.625-10 µM, time 7.0 day
[12] = tested on: BMMC; assay: Anti-osteoclastogenesis activity in C57BL/6 mouse BMMC cells assessed as reduction of RANKL/M-CSF-induced TRAP mRNA expression at 1 uM measured after 3 days by qRT-PCR analysis; format: functional, cell-based; details: time 3.0 day
[13] = tested on: BMMC; assay: Anti-osteoclastogenesis activity in C57BL/6 mouse BMMC cells assessed as reduction of RANKL/M-CSF-induced bone resorption of osteoclasts by measuring decrease in pit areas treated for 7 days after seeding cells onto bone slices by toluidine blue staining based confocal laser microscopic analysis; format: functional, cell-based; details: dose 0.625-10 µM, time 7.0 day
[14] = tested on: BMMC; assay: Anti-osteoclastogenesis activity in C57BL/6 mouse BMMC cells assessed as reduction of RANKL/M-CSF-induced NFATc1 mRNA expression at 1 uM measured after 3 days by qRT-PCR analysis; format: functional, cell-based; details: time 3.0 day
[15] = tested on: BMMC; assay: Anti-osteoclastogenesis activity in C57BL/6 mouse BMMC cells assessed as reduction of RANKL/M-CSF-induced c-fos expression at 1 to 10 uM measured after 3 days by Western blot analysis; format: functional, cell-based; details: dose 1-10 µM, time 3.0 day
[16] = tested on: BMMC; assay: Anti-osteoclastogenesis activity in C57BL/6 mouse BMMC cells assessed as reduction of RANKL/M-CSF-induced osteoclast activation and differentiation by measuring F-actin ring formation with fewer and smaller nuclei measured after 5 days by F-actin staining based microscopic analysis; format: functional, cell-based; details: time 5.0 day

Structure (SMILES) | inhibition [1] | IC50 [3] | viability at 48 h, 10 µM [2] | inhibition at 1 µM [4] | other results
COC(=O)c1cc(NC(=O)Nc2ccccc2OC)c2[nH]c(C)c(C(C)=O)c2c1 | 91.9% | – | – | – | –
CC(=O)c1c(C)[nH]c2c(N(C)C)cc(-c3ccccn3)cc12 | – | 540 nM | 28.9% | 100% | –
CC(=O)c1c(C)[nH]c2c(N)cc(-c3cccnc3)cc12 | – | 1120 nM | 109% | 0% | –
CCOC(=O)Nc1cc(-c2ccccn2)cc2cc(C)[nH]c12 | – | > 10000 nM | – | – | –
CCNC(=O)Nc1cc(-c2cccnc2)cc2c(C(C)=O)c(C)[nH]c12 | – | 1440 nM | – | – | –
COC(=O)c1cc(NC(=O)c2ccc(Cl)cc2)c2[nH]c(C)c(C(C)=O)c2c1 | – | – | – | – | ΔTm [6]: 1.92 °C
CCOC(=O)CNc1cc(C(=O)OC)cc2c(C(C)=O)c(C)[nH]c12 | – | – | – | – | ΔTm [6]: 5.18 °C
COC(=O)c1cc(NS(=O)(=O)c2ccccc2OC)c2[nH]c(C)c(C(C)=O)c2c1 | 100% | – | – | – | inhibition [5]: 60%
CC(=O)c1c(C)[nH]c2c(NC3CCNCC3)cc(-c3cccnc3)cc12 | – | 442 nM | 94.9% | 57.1% | –
COc1ccccc1S(=O)(=O)Nc1cc(-c2cccnc2)cc2c(C(C)=O)c(C)[nH]c12 | – | 1090 nM | 92.7% | 74.2% | Activity [7]: Dose-Dependent Effect
CC(=O)c1c(C)[nH]c2c(N(C)C)cc(-c3ccncc3)cc12 | – | 70 nM | 110% | 67.1% | –
CC(=O)c1c(C)[nH]c2c(N(C)C)cc(-c3nccs3)cc12 | – | 90 nM | 92.6% | 44.1% | –
CC(=O)c1c(C)[nH]c2c(NC3CNC3)cc(-c3cccnc3)cc12 | – | 3430 nM | – | – | –
COc1ccccc1C(=O)Nc1cc2c(cc1N1CCCC1)n(C)c(=O)n2C | 100% | – | – | – | inhibition [5]: 101%
COC(=O)c1cc(NC(=O)Nc2cccc(C(F)(F)F)c2)c2[nH]c(C)c(C(C)=O)c2c1 | 82.3% | – | – | – | –
CC(=O)c1c(C)[nH]c2c(N(C)C)cc(-c3cccnc3)cc12 | – | 173 nM | 104% | 26.2% | –
COC(=O)c1cc(NS(=O)(=O)c2ccccc2)c2[nH]c(C)c(C(C)=O)c2c1 | 100% | – | – | – | inhibition [5]: 18.3%
CC(=O)c1c(C)[nH]c2c(N3CCCC3)cc(-c3cccnc3)cc12 | – | 233 nM | 101% | 40% | –
COC(=O)c1cc(NC(=O)Nc2ccccc2)c2[nH]c(C)c(C(C)=O)c2c1 | 100% | – | – | – | inhibition [5]: 17.6%
COC(=O)c1cc(NC(=O)c2ccccc2OC)c2[nH]c(C)c(C(C)=O)c2c1 | 28.3% | – | – | – | –

Further lines, with some results ahead:

inhibition [1] | IC50 [3] | Structure (SMILES) | viability at 48 h, 10 µM [2] | inhibition at 1 µM [4] | other results
– | 1830 nM | CCOC(=O)Nc1cc(C(=O)NC2CCCC2)cc2c(C(C)=O)c(C)[nH]c12 | – | – | –
100% | – | CCNC(=O)Nc1cc(C(=O)OC)cc2c(C(C)=O)c(C)[nH]c12 | – | – | inhibition [5]: 42.2%
– | 109 nM | CCOC(=O)Nc1cc(-c2ccccn2)cc2c(C(C)=O)c(C)[nH]c12 | 110% | 38.8% | –
– | 309 nM | CCOC(=O)Nc1cc(C(=O)Nc2nccs2)cc2c(C(C)=O)c(C)[nH]c12 | 104% | 0% | –
– | 1700 nM | CCOC(=O)Nc1cc(C(=O)Nc2ccccc2)cc2c(C(C)=O)c(C)[nH]c12 | – | – | –
– | 109 nM | CCOC(=O)Nc1cc(-c2ccncc2)cc2c(C(C)=O)c(C)[nH]c12 | 107% | 66.5% | –
– | 294 nM | CCOC(=O)Nc1cc(-c2nccs2)cc2c(C(C)=O)c(C)[nH]c12 | 111% | 41.3% | –
– | 743 nM | CCOC(=O)Nc1cc(C(=O)c2ccccc2)cc2c(C(C)=O)c(C)[nH]c12 | 119% | 66.8% | –
100% | 558 nM | CCOC(=O)Nc1cc(C(=O)OC)cc2c(C(C)=O)c(C)[nH]c12 | – | – | ΔTm [6]: 5.39 °C; inhibition [5]: 93.1%
100% | – | COC(=O)c1cc(NC(=O)c2ccccc2)c2[nH]c(C)c(C(C)=O)c2c1 | – | – | inhibition [5]: 11.5%
100% | – | CCCC(=O)Nc1cc(C(=O)OC)cc2c(C(C)=O)c(C)[nH]c12 | – | – | inhibition [5]: 38.5%
– | 206 nM | CCOC(=O)Nc1cc(-c2ccccc2)cc2c(C(C)=O)c(C)[nH]c12 | 110% | 0% | –
99.8% | – | CCOC(=O)Nc1cc(C(=O)OC)cc2c(C(C)=O)c(C)n(C)c12 | – | – | inhibition [5]: 17.6%
– | 908 nM | CCOC(=O)Nc1cc(C(=O)NC)cc2c(C(C)=O)c(C)[nH]c12 | 92.6% | 36.8% | –
13.1% | – | CCOC(=O)Nc1cc(C(=O)OC)cc2c(C(C)=O)c[nH]c12 | – | – | –
– | 102 nM | CCOC(=O)Nc1cc(-c2cccnc2)cc2c(C(C)=O)c(C)[nH]c12 | 113% | 73.8% | Activity [8]: Active; Activity [9]: Dose-Dependent Effect; Activity [10]: Active; IC50 ([7]; C57BL/6, BMMC, 120 h): 190 nM; Activity [7]: Dose-Dependent Effect; Activity [11]: Dose-Dependent Effect; Activity [12]: Active; Activity [13]: Dose-Dependent Effect; Activity [14]: Active; Activity [15]: Active; Activity [16]: Active
